IC50 and EC50 data for five compounds are collected here from patent US20140200188A1, “2'-FLUORO SUBSTITUTED CARBA-NUCLEOSIDE ANALOGS FOR ANTIVIRAL TREATMENT” (priority 2010, published 2014).

For assay [1], the target named is Influenza RNA polymerase (Influenza A/PR8/34 (H1N1) virus lysate) (Influenza A virus, UniProt P03431). As to the kind of experiment: Influenza RNA polymerase inhibition (IC50) assay. It is filed as biochemical.
The subject of assay [2] is Influenza A virus (A/Hong Kong/8/68). As to the kind of experiment: Influenza A antiviral assay (H3N2), virus-induced cytopathic effect in MDCK cells. Conditions: 120 h, Influenza A/Hong Kong/8/68 (H3N2), MOI 0.03, five day incubation, Cell-titer Glo, read-out: EC50 against the influenza virus. It is filed as cell-based. Here is the method:
MDCK cells were seeded in 96-well plates at a density of 1e5 cells per well in 100 μL of MEM culture medium with 10% FBS. Compounds were 3-fold serially diluted in complete MEM culture medium, with 100 μM as the highest concentration. Each concentration was tested in duplicate. Prior to infection, cells were washed once with 200 μL serum-free MEM. Influenza A virus (A/Hong Kong/8/68, Advanced Biotechnology Inc, Columbia, Md.) was added to cells at MOI 0.03 in 100 ul serum-free MEM containing 27 U/mL trypsin (Worthington, Lakewood, N.J.). After 10 minute incubation at room temperature, 100 μL compound dilutions were added to infected cells for a final volume of 200 μL. After five day incubation at 37° C., virus-induced cytopathic effect was determined by adding Cell-titer Glo viability reagents (Promega, Madison, Wis.) and measuring luminescence on a Victor Luminescence plate reader (Perkin-Elmer, Waltham, Mass.). The cytotoxicity of the compounds in MDCK cells was determined in replicate plates in the same way as in antiviral activity assays, except no virus was added to the cell culture. EC50 and CC50 values were calculated by non-linear regression of multiple data sets using XLFit software (IBDS, Guildford, UK).

Sequence of Influenza RNA polymerase (Influenza A/PR8/34 (H1N1) virus lysate) (P03431 whole entry, looked up): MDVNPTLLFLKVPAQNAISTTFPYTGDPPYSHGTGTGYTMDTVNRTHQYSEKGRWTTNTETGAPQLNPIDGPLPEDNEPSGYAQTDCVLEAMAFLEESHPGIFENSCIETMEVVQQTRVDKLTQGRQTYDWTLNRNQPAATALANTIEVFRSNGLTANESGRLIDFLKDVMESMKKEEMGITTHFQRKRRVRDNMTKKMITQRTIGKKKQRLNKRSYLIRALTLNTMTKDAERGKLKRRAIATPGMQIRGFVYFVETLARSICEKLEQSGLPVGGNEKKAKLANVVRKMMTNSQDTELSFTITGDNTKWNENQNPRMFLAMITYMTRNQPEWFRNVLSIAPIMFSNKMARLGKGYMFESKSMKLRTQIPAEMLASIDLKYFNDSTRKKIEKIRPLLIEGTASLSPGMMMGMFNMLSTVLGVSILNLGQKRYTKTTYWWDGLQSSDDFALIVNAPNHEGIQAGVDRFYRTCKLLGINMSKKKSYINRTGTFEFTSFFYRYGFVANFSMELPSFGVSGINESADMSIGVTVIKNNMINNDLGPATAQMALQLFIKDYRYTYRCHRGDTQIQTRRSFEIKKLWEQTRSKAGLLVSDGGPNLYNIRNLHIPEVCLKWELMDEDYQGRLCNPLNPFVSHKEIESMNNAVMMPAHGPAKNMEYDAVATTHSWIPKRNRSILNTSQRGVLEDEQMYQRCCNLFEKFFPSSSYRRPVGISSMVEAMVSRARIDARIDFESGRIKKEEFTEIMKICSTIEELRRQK

In turn, `C[C@@]1(c2ccc3c(N)ncnn23)O[C@H](COP(=O)(O)OP(=O)(O)OP(=O)(O)O)[C@@H](O)[C@H]1F` [Compound 9, ((2R,3R,4R,5S)-5-(4-aminopyrrolo[1,2-f][1,2,4]triazin-7-yl)-4-fluoro-3-hydroxy-5-methyltetrahydrofuran-2-yl)methyl tetrahydrogen triphosphate] had an IC50 in assay [1] of 2100 to 2970 nM.
Still for that read-out and setting: the result for `Nc1nc(F)nn2c([C@@H]3O[C@H](COP(=O)(O)OP(=O)(O)OP(=O)(O)O)[C@@H](O)[C@H]3F)ccc12` [Compound 21, ((2R,3R,4R,5S)-5-(4-amino-2-fluoropyrrolo[1,2-f][1,2,4]triazin-7-yl)-4-fluoro-3-hydroxytetrahydrofuran-2-yl)methyl tetrahydrogen triphosphate] reads 970 to 1870 nM.
Consider `Nc1ncnn2c([C@@H]3O[C@H](CO)[C@@H](O)[C@H]3F)ccc12` [Compound 1, (2R,3R,4R,5S)-5-(4-aminopyrrolo[1,2-f][1,2,4]triazin-7-yl)-4-fluoro-2-(hydroxymethyl)-tetrahydrofuran-3-ol], for which the EC50 in assay [2] is 10500 to 12700 nM.
In assay [1], `Nc1ncnn2c([C@@H]3O[C@H](COP(=O)(O)OP(=O)(O)OP(=O)(O)O)[C@@H](O)[C@H]3F)ccc12` [Compound 11, ((2R,3R,4R,5S)-5-(4-aminopyrrolo[1,2-f][1,2,4]triazin-7-yl-4-fluoro-3-hydroxy-tetrahydrofuran-2-yl)methyltetrahydrogen triphosphate] had an IC50 of 950 to 1590 nM.
Same read-out and setting: for `N#C[C@@]1(c2ccc3c(N)ncnn23)O[C@H](COP(=O)(O)OP(=O)(O)OP(=O)(O)O)[C@@H](O)[C@H]1F` [Compound 10, ((2R,3R,4R,5R)-5-(4-aminopyrrolo[1,2-f][1,2,4]triazin-7-yl-5-cyano-4-fluoro-3-hydroxytetrahydrofuran-2-yl)methyltetrahydrogen triphosphate] the value was 48600 to 116000 nM.
